Source: patent US11161845B2, “Pyrrolopyridine-aniline compounds for treatment of dermal disorders” (Nflection Therapeutics, Inc., priority 2017, dated 2021)
Like-named read-outs stand apart in the source and are kept apart here.

How the values were obtained:
MAP2K1 (MEK1) = target: T1, MAP2K1 (MEK1) (Homo sapiens, UniProt Q02750); assay: MEK inhibition assay, Biological Example 1b (Z'-LYTE); conditions: Biological Example 1b (compounds 8, 10, 12 and 13); read-out: Assay 1: biochemical MEK IC50
T1 construct: purchased ThermoFisher
T1 sequence (Q02750 whole entry): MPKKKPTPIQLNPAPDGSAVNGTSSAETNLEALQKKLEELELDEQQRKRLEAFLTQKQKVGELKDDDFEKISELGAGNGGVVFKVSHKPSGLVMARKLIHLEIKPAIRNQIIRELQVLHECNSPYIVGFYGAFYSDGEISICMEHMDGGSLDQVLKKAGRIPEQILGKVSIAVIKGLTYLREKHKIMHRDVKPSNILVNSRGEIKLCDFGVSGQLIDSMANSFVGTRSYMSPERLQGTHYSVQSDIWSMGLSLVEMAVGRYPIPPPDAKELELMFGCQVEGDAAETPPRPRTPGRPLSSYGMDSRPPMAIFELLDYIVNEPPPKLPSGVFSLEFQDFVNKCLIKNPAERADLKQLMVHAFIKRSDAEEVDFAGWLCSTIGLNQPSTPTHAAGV
Protocol: MEK1 inhibitory activity of compounds were tested using the following procedure (protocol available at thermofisher.com/content/dam/LifeTech/migration/files/drug-discovery/pdfs.par.60256.file.dat/20130430%20ssbk%20customer %20protocol%20and %20assay%20conditions.pdf). The Z′-LYTE biochemical assay (ThermoFisher) employs a fluorescence-based, coupled-enzyme format and is based on the differential sensitivity of phosphorylated and non-phosphorylated peptides to proteolytic cleavage.
Test compounds in 100% DMSO were screened in 1% DMSO (final) in the well. For 10 point titrations, 3-fold serial dilutions are conducted from the starting concentration of 30 μM.
After the 1 hour incubation, 5 μL of a 1:1024 dilution of Development Reagent A (available from Invitrogen, catalog no. PV3295) was added.
ATP solutions were diluted to a 4× working concentration in Kinase Buffer (50 mM HEPES pH 7.5, 0.01% BRIJ-35, 10 mM MgCl2, 1 mM EGTA). ATP Km apparent was previously determined using a Z′-LYTE assay. The Development Reagent was diluted in Development Buffer (available from Invitrogen, catalog no. P3127).
Assay Protocol: 2.5 μL of 4× test compound or 100 nL of 100× Test Compound plus 2.4 μL Kinase Buffer, 5 μL of the 2× Peptide/Kinase Mixture, 2.5 μL of 4×ATP Solution were added to the plates and placed on a shake plate for 30-seconds. The kinase reaction was allowed to proceed for 60-minute at room temperature, before 5 μL of Development Reagent Solution was added, and the mixture agitated for 30-seconds on a shake plate. The mixture was incubated for 60-minute at room temperature. Fluorescence was measured using a plate reader and the data were analyzed.
This control yielded 100% cleaved peptide in the Development Reaction. The 100% Phosphorylation Control, which consisted of a synthetically phosphorylated peptide of the same sequence as the peptide substrate, was designed to allow for the calculation of percent phosphorylation. This control yielded a very low percentage of cleaved peptide in the Development Reaction. The 0% Phosphorylation and 100% Phosphorylation Controls allow for the calculation of the percent phosphorylation achieved in a specific reaction well.
The minimum emission ratio in a screen was established by the 0% Inhibition Control, which contained active kinase. This control was designed to produce a 10-50% phosphorylated peptide in the Kinase Reaction. […]
A known inhibitor control standard curve, 10 point titration, was run for each individual kinase on the same plate as the kinase to ensure the kinase was inhibited within an expected IC50 range previously determined.
The following controls are prepared for each concentration of Test Compound assayed. […] The expected value for a non-fluorescence compound should be 0%. […]
The data in Table A was calculated. […]

[1] = S9 stability assay, human liver S9 fraction; type: in vitro ADME; conditions: for half-life at 1 μM / microsomal CLint at 1 μM: pH 7.4
Protocol: Compounds were assessed for metabolic stability in human skin by assessing their rate of disappearance from human S9 skin fraction. Similarly, compounds were assessed for metabolic stability in human liver by assessing their rate of disappearance from human S9 liver fraction. The protocol below can be used to assess the difference between skin and hepatic metabolism.
The assay was carried out in 96-well microtiter plates at 37° C. Reaction mixtures (25 μL) contained a final concentration of 1 μM test compound, 2 mg/mL liver or skin S9 protein, and 1 mM NADPH in buffer (100 mM potassium phosphate, pH 7.4 buffer with 1 mM EDTA, 3 mM MgCl2). At each of the time points (0, 15, 30, and 60 minutes), 150 μL of quench solution (100% acetonitrile with 0.1% formic acid) with internal standard was transferred to each well. Besides the zero minute controls, mixtures containing the same components except the NADPH were also prepared as the negative control. Verapamil or testosterone was included as a positive control to verify assay performance. Plates were sealed and centrifuged at 4° C. for 15 minutes at 4000 rpm. The supernatant was transferred to fresh plates for LC/MS/MS analysis.
All samples were analyzed on LC/MS/MS using an AB Sciex API 4000 instrument, coupled to a Shimadzu LC-20AD LC Pump system. Analytical samples were separated using a Waters Atlantis T3 dC18 reverse phase HPLC column (20 mm×2.1 mm) at a flow rate of 0.5 mL/min. The mobile phase consisted of 0.1% formic acid in water (solvent A) and 0.1% formic acid in 100% acetonitrile (solvent B).
The extent of metabolism was calculated as the disappearance of the test compound, compared to the 0-min control reaction incubations. Initial rates were calculated for the compound concentration and used to determine t1/2 values and subsequently, the intrinsic clearance, CLint=(0.693) (1/t1/2 (min)) (mL incubation/mg of S9 protein).

MEK1 = target: T2, MEK1 (Homo sapiens, UniProt Q02750); assay: MEK inhibition assay, Biological Example 1a (33P-ATP, P81 filter-binding); conditions: read-out: Assay 1: biochemical MEK IC50
T2 construct: N-terminal His-tagged recombinant human full length protein; His (N); purchased Invitrogen PV3303; host or cells: insect cells
T2 sequence (Q02750 whole entry): as above
Protocol: MEK1 inhibitory activity of compounds were tested using the following procedure. […] Activated in vitro by RAF1. MW=49.2 kDa, GenBank Accession No. NP_002746. • Substrate: 5 μM ERK2 (K52R), • Kinase-dead mutant, (GenBank Accession No. NM_0011949), aa2-358 with N-terminal His6 tag, MW=43.63 kDa, expressed in E. coli.
The substrate was prepared in freshly prepared Reaction Buffer. The kinase was delivered into the substrate solution and gently mixed. Test compounds were delivered in 100% DMSO into the kinase reaction mixture by Acoustic technology (Echo550; nanoliter range), and incubated for 20 min at room temperature. ^33P-ATP was delivered into the reaction mixture to initiate the reaction. The reaction mixture was incubated for 2 hours at room temperature. Kinase activity was detected by P81 filter-binding method.

A375 cells = assay: A375 (BRAF) GI50 cell-based assay (Cell Titer-Glo); conditions: Homo sapiens, A-375; 72 hours; read-out: Assay 2: A375 (BRAF) GI50
Protocol: (§1) Alternatively, the following procedure can be used to measure cell-based activity. Test compounds were dissolved in DMSO in 10 mM stock. Cell Titer-Glo® 2.0 Luminescent cell viability assay reagent was purchased from Promega (Madison, Wis.). A375 and HCT116 cell lines were purchased from American Type Culture Collection (Manassas, Va.). For A375 cells, cell culture media was DMEM+10% FBS. For HCT116 cells, cell culture media was McCoy's 5A+10% FBS. All media were supplemented with 100 μg/mL of penicillin, and 100 μg/mL of streptomycin. Cultures were maintained at 37° C. in a humidified atmosphere of 5% CO2 and 95% air.
(§2) Test compounds were diluted in DMSO solution with 10-dose and 3-fold dilutions in a source plate starting at 10 mM. 25 nL of each test compound was delivered from the source plate to each well of the 384-well cell culture plates (T=Final) by Echo 550. 25 μL of culture medium containing 2000 of A375 or HCT116 cells was added to each of the wells in duplicates of the cell culture plates (T=0 and T=Final). 25 μL of Cell Titer Glo 2.0 reagent was added to each well of cell culture plate (T=0). The contents were mixed on an orbital shaker for 2 min and incubated at room temperature for 15 min to stabilize luminescent signal. Luminescence was recorded by Envision 2104 Multilabel Reader (PerkinElmer, Santa Clara, Calif.). The number of viable cells in culture was determined based on quantitation of the ATP present in each culture well. The cells in cell culture plate (T=Final) were incubated with the compounds at 37° C., 5% CO2 for 72 hours. 25 μL of Cell Titer Glo 2.0 reagent was added to each well. The contents were mixed on an orbital shaker for 2 min and incubated at room temperature for 15 min to stabilize luminescent signal. Luminescence was recorded by Envision 2104 Multilabel Reader (PerkinElmer, Santa Clara, Calif.). The number of viable cells in culture was determined based on quantitation of the ATP present in each culture well. The G150 curves were plotted using the GraphPad Prism 4 program based on a sigmoidal dose-response equation Y=Bottom+(Top−Bottom)/(1+10^((Log EC50−X)*HillSlope)). All parameters in the equation were calculated by GraphPad Prism 4 program. […] Accordingly, GI50 is the value of 10^X, where X was calculated by the Curve Fitting Equation when Y=50 using Excel.

HCT116 cells = assay: HCT116 (Kras) GI50 cell-based assay (Cell Titer-Glo); conditions: Homo sapiens, HCT-116; 72 hours; read-out: Assay 3: HCT116 (Kras) GI50
Protocol: as §1, §2

[2] = human, liver S9 fraction, Table 2, 1 μM, 2 mg/mL S9 protein, NADPH, read-out: Assay 4: human liver S9 half-life
[3] = human, liver S9 fraction, Table 2, 1 μM, 2 mg/mL S9 protein, NADPH, read-out: Assay 5: human liver S9 instrinsic clearance value

SMILES | IC50 (MAP2K1 (MEK1)) [nM] | half-life at 1 μM [1, 2] [min] | microsomal CLint at 1 μM [1, 3] [µL/min/mg] | IC50 (MEK1) [nM] | GI50 (A375 cells) [nM] | GI50 (HCT116 cells) [nM] | Assay 5: human liver S9 instrinsic clearance value ([1]; Table 2, 1 μM, 2 mg/mL S9 protein, NADPH) [μL/min/mg protein] | microsomal CLint at 1 μM ([1]; Table 1, human liver S9 fraction, read-out: CLint) [µL/min/mg] | half-life at 1 μM ([1]; Table 1, human liver S9 fraction, read-out: Liver S9 t1/2) [min]
COc1cnc2c(c1)c(C(=O)NOCCO)c(Nc1ccc(I)cc1F)n2C [Example 8, 2-((2-Fluoro-4-iodophenyl)amino)—N-(2-hydroxyethoxy)-5-methoxy-1-methyl-1H-pyrrolo[2,3-b]pyridine-3-carboxamide] | 243 | 34 | 10.3 | – | – | – | – | – | –
Cn1c(Nc2ccc(I)cc2F)c(C(=O)NOCC2CC2)c2cccnc21 [Example 7, N-(Cyclopropylmethoxy)-2-((2-fluoro-4-iodophenyl)amino)-1-methyl-1H-pyrrolo[2,3-b]pyridine-3-carboxamide] | – | – | – | 260 | 346 | 346 | 44.80 | 44.8 | 8
Cn1c(Nc2ccc(I)cc2F)c(C(N)=O)c2cccnc21 [Example 13, 2-(2-Fluoro-4-iodoanilino)-1-methyl-1H-pyrrolo[2,3-b]pyridine-3-carboxamide] | 9610 | 23 | 15.4 | – | – | – | – | – | –
Cn1c(Nc2ccc(I)cc2F)c(C(=O)NO)c2cccnc21 [Example 4, 2-((2-Fluoro-4-iodophenyl)amino)—N-hydroxy-1-methyl-1H-pyrrolo[2,3-b]pyridine-3-carboxamide] | – | 21 | 16.5 | 671 | 809 | 5010 | – | – | –

The remaining lines, values ahead:

IC50 (MAP2K1 (MEK1)) [nM] | half-life at 1 μM [1, 2] [min] | microsomal CLint at 1 μM [1, 3] [µL/min/mg] | IC50 (MEK1) [nM] | GI50 (A375 cells) [nM] | GI50 (HCT116 cells) [nM] | Assay 5: human liver S9 instrinsic clearance value ([1]; Table 2, 1 μM, 2 mg/mL S9 protein, NADPH) [μL/min/mg protein] | microsomal CLint at 1 μM ([1]; Table 1, human liver S9 fraction, read-out: CLint) [µL/min/mg] | half-life at 1 μM ([1]; Table 1, human liver S9 fraction, read-out: Liver S9 t1/2) [min] | SMILES
1780 | 105 | 3.29 | – | – | – | – | – | – | Cn1c(Nc2ccc(I)cc2F)c(C(=O)NC[C@@H](O)CO)c2cccnc21 [Example 12, (R)—N-(2,3-dihydroxypropyl)-2-((2-fluoro-4-iodophenyl)amino)-1-methyl-1H-pyrrolo[2,3-b]pyridine-3-carboxamide]
– | 90 | 3.85 | 371 | 81 | 448 | – | – | – | Cn1c(Nc2ccc(I)cc2F)c(C(=O)NOC[C@H](O)CO)c2cccnc21 [Example 6, (R)—N-(2,3-Dihydroxypropoxy)-2-((2-fluoro-4-iodophenyl)amino)-1-methyl-1H-pyrrolo[2,3-b]pyridine-3-carboxamide]
1770 | 96 | 3.59 | – | – | – | – | – | – | Cn1c(Nc2ccc(I)cc2F)c(C(=O)NC[C@H](O)CO)c2cccnc21 [Example 10, (S)—N-(2,3-dihydroxypropyl)-2-((2-fluoro-4-iodophenyl)amino)-1-methyl-1H-pyrrolo[2,3-b]pyridine-3-carboxamide]
